Measurements: ChEMBL document CHEMBL5465560, “Selectivity Literature for EUbOPEN Chemogenomic Library” (2024)

Assays:
[1] = molecular target: Glycogen synthase kinase-3 alpha (Homo sapiens, UniProt P49840); assay: Selectivity interaction (Kinase panel (KiNativ target engagement assay in Jurkat cells)) EUB0001635a GSK3A; format: cell-based; conditions: Selectivity number of off-targets 0.0, Selectivity number of targets 233.0, Source Knowledge https://www.sciencedirect.com/science/article/pii/S2451945619300674?via%3Dihub, at 1 µM
Sequence of Glycogen synthase kinase-3 alpha (P49840 2-483 limits assumed): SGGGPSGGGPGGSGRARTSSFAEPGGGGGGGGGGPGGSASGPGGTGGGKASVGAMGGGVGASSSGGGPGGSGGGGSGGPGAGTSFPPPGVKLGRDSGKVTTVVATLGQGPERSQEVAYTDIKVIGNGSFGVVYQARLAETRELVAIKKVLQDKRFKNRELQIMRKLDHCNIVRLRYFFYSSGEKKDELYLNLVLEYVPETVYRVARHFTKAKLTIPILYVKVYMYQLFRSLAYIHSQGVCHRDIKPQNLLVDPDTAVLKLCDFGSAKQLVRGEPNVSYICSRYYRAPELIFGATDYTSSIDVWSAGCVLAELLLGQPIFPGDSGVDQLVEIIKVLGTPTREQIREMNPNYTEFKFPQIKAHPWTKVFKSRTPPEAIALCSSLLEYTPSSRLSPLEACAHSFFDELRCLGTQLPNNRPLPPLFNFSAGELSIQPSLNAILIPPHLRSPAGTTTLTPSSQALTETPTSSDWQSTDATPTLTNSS

[2] = molecular target: T1, Serine/threonine-protein kinase TAO3 (Homo sapiens) (UniProt Q9H2K8); assay: Selectivity interaction (KinomeScan (DiscoverX)) EUB0000595a TAOK3; conditions: at 10 µM
T1 sequence (whole entry): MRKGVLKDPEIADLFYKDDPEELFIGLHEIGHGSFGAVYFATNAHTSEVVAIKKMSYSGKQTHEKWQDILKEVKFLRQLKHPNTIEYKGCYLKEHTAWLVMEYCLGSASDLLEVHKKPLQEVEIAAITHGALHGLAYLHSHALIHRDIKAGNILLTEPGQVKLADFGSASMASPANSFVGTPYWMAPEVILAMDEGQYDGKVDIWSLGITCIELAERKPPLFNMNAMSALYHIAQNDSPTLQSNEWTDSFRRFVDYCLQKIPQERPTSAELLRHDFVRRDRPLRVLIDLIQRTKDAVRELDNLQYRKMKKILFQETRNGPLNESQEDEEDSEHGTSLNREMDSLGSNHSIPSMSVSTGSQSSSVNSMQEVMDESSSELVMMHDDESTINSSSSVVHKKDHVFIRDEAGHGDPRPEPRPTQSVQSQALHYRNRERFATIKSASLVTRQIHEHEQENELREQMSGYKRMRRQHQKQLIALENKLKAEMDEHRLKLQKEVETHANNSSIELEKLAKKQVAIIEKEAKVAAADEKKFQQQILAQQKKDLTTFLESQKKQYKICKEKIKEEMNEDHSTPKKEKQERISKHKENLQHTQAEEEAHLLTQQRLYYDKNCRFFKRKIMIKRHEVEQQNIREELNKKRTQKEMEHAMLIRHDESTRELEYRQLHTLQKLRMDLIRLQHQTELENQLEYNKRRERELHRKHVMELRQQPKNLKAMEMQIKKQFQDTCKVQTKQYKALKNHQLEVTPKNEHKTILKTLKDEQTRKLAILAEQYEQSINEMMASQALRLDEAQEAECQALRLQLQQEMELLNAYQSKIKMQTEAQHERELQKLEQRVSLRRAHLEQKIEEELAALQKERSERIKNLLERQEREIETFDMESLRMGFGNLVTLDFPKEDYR

[3] = molecular target: T2, G protein-coupled receptor kinase 3 (Homo sapiens) (UniProt P35626); assay: Selectivity interaction (KinomeScan (DiscoverX)) EUB0000695a ADRBK2; conditions: at 100 nM
T2 sequence (whole entry): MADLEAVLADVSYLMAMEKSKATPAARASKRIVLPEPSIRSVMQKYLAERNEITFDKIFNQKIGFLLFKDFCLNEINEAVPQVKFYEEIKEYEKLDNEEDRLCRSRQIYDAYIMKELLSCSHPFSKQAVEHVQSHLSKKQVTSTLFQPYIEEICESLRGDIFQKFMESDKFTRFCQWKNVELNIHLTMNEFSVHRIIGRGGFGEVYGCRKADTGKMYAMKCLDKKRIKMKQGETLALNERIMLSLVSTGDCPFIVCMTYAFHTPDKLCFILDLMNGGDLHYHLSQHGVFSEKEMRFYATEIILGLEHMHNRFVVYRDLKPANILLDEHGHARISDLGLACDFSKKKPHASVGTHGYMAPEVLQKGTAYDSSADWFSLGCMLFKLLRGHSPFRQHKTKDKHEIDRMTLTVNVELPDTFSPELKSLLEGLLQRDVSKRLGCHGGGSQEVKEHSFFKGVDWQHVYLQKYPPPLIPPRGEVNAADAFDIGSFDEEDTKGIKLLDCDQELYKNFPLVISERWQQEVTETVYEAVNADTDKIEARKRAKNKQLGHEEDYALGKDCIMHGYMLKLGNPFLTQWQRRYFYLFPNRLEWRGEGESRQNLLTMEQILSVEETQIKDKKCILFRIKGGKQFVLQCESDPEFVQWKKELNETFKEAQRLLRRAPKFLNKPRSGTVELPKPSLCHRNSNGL

[4] = molecular target: Calcium/calmodulin-dependent protein kinase type 1 (Homo sapiens) (UniProt Q14012); conditions: at 10 µM
Sequence of Calcium/calmodulin-dependent protein kinase type 1 (Homo sapiens) (Q14012 whole entry, looked up): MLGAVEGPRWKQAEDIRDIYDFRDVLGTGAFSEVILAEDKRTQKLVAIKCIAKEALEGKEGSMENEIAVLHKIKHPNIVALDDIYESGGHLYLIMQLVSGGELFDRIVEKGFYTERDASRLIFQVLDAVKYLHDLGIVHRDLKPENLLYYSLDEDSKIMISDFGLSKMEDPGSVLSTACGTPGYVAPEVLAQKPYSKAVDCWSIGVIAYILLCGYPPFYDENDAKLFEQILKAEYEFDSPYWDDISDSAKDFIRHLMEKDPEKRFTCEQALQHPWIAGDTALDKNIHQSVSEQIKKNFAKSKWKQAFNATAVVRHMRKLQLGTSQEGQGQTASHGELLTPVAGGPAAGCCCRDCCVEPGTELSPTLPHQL

[5] = molecular target: T3, Dual specificity tyrosine-phosphorylation-regulated kinase 3 (Homo sapiens, UniProt O43781); assay: Selectivity interaction (Enzymatic assay (Eurofins)) EUB0001049a DYRK3
T3 sequence (O43781 whole entry): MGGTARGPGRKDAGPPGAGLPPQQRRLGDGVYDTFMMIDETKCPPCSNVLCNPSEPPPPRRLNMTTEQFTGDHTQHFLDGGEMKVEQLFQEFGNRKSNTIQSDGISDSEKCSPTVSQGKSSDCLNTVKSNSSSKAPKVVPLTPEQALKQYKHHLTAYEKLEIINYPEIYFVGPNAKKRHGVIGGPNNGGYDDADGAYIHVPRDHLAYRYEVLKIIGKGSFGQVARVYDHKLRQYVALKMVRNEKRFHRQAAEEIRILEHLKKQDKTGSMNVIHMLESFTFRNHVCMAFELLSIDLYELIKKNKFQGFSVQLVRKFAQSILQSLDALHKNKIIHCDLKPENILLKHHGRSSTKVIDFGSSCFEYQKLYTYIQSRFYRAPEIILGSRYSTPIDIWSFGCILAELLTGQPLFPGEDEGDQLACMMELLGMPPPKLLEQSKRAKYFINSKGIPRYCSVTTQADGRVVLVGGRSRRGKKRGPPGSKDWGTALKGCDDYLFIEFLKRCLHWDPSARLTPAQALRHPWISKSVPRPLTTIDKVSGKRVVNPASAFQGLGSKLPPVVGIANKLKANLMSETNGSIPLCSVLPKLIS

[6] = molecular target: T4, Dual specificity mitogen-activated protein kinase kinase 3 (Homo sapiens) (UniProt P46734); assay: Selectivity interaction (KinomeScan (DiscoverX)) EUB0000655a MAP2K3; conditions: at 10 µM
T4 sequence (whole entry): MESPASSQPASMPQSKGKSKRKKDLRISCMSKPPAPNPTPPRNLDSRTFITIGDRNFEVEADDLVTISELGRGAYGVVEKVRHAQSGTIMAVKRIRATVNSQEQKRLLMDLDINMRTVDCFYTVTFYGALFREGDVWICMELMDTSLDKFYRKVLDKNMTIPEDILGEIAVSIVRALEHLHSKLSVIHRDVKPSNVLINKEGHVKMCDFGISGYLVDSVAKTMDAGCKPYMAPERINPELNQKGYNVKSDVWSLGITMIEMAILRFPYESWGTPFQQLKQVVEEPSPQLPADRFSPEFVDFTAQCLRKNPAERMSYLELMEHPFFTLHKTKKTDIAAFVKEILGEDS

[7] = molecular target: MAP kinase-interacting serine/threonine-protein kinase 2 (Homo sapiens, UniProt Q9HBH9); assay: Selectivity interaction (KinomeScan (DiscoverX)) EUB0000092b MKNK2; conditions: at 10 µM
Sequence of MAP kinase-interacting serine/threonine-protein kinase 2 (Q9HBH9 whole entry, looked up): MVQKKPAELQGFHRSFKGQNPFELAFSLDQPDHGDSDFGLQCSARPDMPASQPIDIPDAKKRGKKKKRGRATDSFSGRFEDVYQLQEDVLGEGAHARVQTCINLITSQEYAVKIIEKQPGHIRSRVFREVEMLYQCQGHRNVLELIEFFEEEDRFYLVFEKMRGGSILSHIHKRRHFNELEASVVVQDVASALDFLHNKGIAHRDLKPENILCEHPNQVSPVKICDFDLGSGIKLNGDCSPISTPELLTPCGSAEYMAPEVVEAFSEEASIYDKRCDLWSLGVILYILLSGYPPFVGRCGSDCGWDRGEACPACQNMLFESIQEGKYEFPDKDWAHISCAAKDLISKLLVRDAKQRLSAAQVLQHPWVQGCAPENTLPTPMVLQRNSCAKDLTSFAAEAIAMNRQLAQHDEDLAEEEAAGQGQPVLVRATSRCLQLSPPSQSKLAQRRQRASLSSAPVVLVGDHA

[8] = molecular target: Hepatocyte growth factor-like protein (Homo sapiens) (UniProt P26927); assay: Selectivity interaction (Ambit KINOMEscan and KiNATiv profiling in Jurkat cells) EUB0000090b MST1; format: cell-based; conditions: at 1 µM

For `C=CC(=O)Nc1ccc(C(=O)Nc2[nH]nc3c2CN(C(=O)N[C@H](CN(C)C)c2ccccc2)C3(C)C)cc1`, the % of engagement [1] was -9.5%.
Work on `COCC(=O)NC/C=C/c1ccc2ncnc(Nc3ccc(Oc4ccc(C)nc4)c(C)c3)c2c1` [CP-724714] yielded a % of control [2] of 100%.
In the case of `Cc1cc(F)c(C(=O)Nc2cccc(-c3nncn3C(C)C)n2)cc1-n1cnc(C2CC2)c1`, the % of control [3] is reported as 91%.
Work on `Cc1cc([C@@H](C)Nc2ccccc2C(=O)O)c2nc(N3CCOCC3)cc(=O)n2c1` [AZD-6482] yielded a % of control [4] of 100%.
`COc1cc(Nc2nc(C)cc(-c3cnn4nc(OC)ccc34)n2)cc(C(F)(F)F)c1` showed an IC50 [5] greater than 10 µM.
Compound `CN(C)CCOc1ccc(-c2nc(-c3ccncc3)c(-c3ccc4c(c3)CC/C4=N\O)[nH]2)cc1` has a % of control [6] of 84%.
With `CCC(=O)N1CCN(c2ccc(-n3c(=O)ccc4cnc5ccc(-c6cnc7ccccc7c6)cc5c43)cc2C(F)(F)F)CC1` the % of control [7] was 54%.
`CN(C)C/C=C/C(=O)Nc1ccc(C(=O)N2CCCC(Nc3ncc(Cl)c(-c4c[nH]c5ccccc45)n3)C2)cc1` (stereo not drawn) gave a % of control [8] of 78%.
